Experimental data reported in patent publication US20220000911A1, “COMBINATION OF GOLD COMPLEXES WITH OLAPARIB OR OTHER PARP1/2 INHIBITORS FOR USE IN THE TREATMENT OF CANCER RESISTANT TO SAID PARP1/2 INHIBITORS” (Varsity Pharmaceuticals Limited, priority 2020, published 2022).

Key:
Format in all cases: cell-based
[1] = test system: olaparib resistant HCC1937 triple negative breast cancer cells; assay: Proliferation inhibition of olaparib resistant HCC1937 cells, single agents
Experimental: (§1) The cells were harvested from a flask into cell culture medium (RPMI 1640 Medium with 10% FBS) and then counted. The cells were diluted with culture medium and 40 μL of cell suspension (1000 cells/well) was added into each well of a 384-well cell culture plate. The plate was covered with a lid and left at room temperature without shaking for 30 minutes. The plate was then transferred to an incubator at 37° C. and 5% CO2 and left overnight.
(§2) Test compounds were dissolved at a concentration of 30 mM in DMSO to create a stock solution. 45 μL of the stock solution was transferred to a 384 pp-plate. A 3-fold, 10-point dilution was performed by transferring 15 μL of the compound solution into 30 μL DMSO by using TECAN (EVO200) liquid handler. The plate was then spun at room temperature at 1,000 RPM for 1 minute. 40 nL of the diluted compound was then transferred from the compound source plate into the cell plate. The cell plate was then covered with a lid and placed in an incubator at 37° C. and 5% CO2 and left for 120 hours. 72 hours after treatment with the compound detection was conducted as discussed below.
(§3) CellTiter Glo® reagents were thawed and equilibrated to room temperature. The cell plate was then removed from the incubator and equilibrated at room temperature for 15 minutes. 30 μL of the CellTiter Glo® reagents were then added into each well (at 1:1 to culture medium). The contents was mixed for 2 minutes on an orbital shaker to induce cell lysis and then the plates were allowed to incubate at room temperature for 30 minutes. Luminescence was then measured on an Envision reader (Perkin Elmer).
(§4) Inhibition (%)=100×(Lumvehicle−Lumsample)/(Lumvehicle−Lumblank),
The methods were as described in examples 1 and 2, except the HCC1937 cell line was used.
The HCC1937 cell line was established from a primary breast carcinoma from a patient with a germ-line BRCA1 mutation. It is an example of a triple-negative breast cancer (TNBC) cell line. Breast cancer patients routinely have the expression of estrogen receptor (ER), progesterone receptor (PR), and amplification of HER-2/Neu evaluated. […] The latter group is referred to as triple-negative breast cancer based on the lack of these three molecular markers. TNBC represents approximately 10-15% of all breast cancers and patients with TNBC have a poor outcome compared to the other subtypes of breast cancer.

[2] = test system: wildtype A2780 ovarian cancer cells; assay: CellTiter Glo proliferation inhibition, wild-type A2780 cells; conditions: for Mean Inhibition (n = 3): wildtype A2780
Experimental: The A2780 cell line is an ovarian cancer cell line that was established from an ovarian endometroid adenocarcinoma tumour. […] It is commonly used as a model to observe the effects of, and test the potency of various chemicals, methods of delivery and treatments for ovarian cancer. […] The cells were diluted with culture medium and 40 μL of cell suspension (1000 cells/well) was added into each well of a 384-well cell culture plate. The plate was covered with a lid and left at room temperature without shaking for 30 minutes. The plate was then transferred to an incubator at 37° C. and 5% CO2 and left overnight. Test compounds were dissolved at a concentration of 30 mM in DMSO to create a stock solution. 45 μL of the stock solution was transferred to a 384 pp-plate. […] The plate was then spun at room temperature at 1,000 RPM for 1 minute. 40 nL of the diluted compound was then transferred from the compound source plate into the cell plate. The cell plate was then covered with a lid and placed in an incubator at 37° C. and 5% CO2 and left for 120 hours. 72 hours after treatment with the compound detection was conducted as discussed below. CellTiter Glo® reagents were thawed and equilibrated to room temperature. The cell plate was then removed from the incubator and equilibrated at room temperature for 15 minutes. 30 μL of the CellTiter Glo® reagents were then added into each well (at 1:1 to culture medium). The contents was mixed for 2 minutes on an orbital shaker to induce cell lysis and then the plates were allowed to incubate at room temperature for 30 minutes. Luminescence was then measured on an Envision reader (Perkin Elmer). The inhibition activity was calculated using the following formula: […]

[3] = test system: olaparib resistant A2780 ovarian cancer cells; assay: CellTiter Glo proliferation inhibition, olaparib resistant A2780 cells, single agents; conditions: for Mean Inhibition (n = 3): olaparib resistant A2780
Experimental: A2780 ovarian cancer cells (wild-type “WT”) were cultured in RPMI 1640 Medium with 10% Fetal Bovine Serum (FBS).
To obtain cells resistant to olaparib, the cells were cultured in cell culture medium (RPMI 1640 Medium with 10% FBS) supplemented with 20 μM olaparib for one month in order to generate A2780 cells resistant to olaparib (“R”). After a month the cells were continuously cultured in the cell culture medium (RPMI 1640 Medium with 10% FBS) supplemented with 10 μM olaparib prior to use and for up to two months to maintain the resistance.
as §1
as §2, with “A 3-fold, 10-point dilution was performed by transferring 15 μL of the compound solution into 30 μL DMSO by using TECAN (EVO200) liquid handler.” left out
as §3
The inhibition activity was calculated using the following formula:
as §4
where Lumvehicle is the luminescence of cells treated with 0.1% DMSO and Lumblank is cells in the culture medium.
The IC50 was calculated by fitting the curve using Xlfit (v5.3.1.3), equation 201: […]

[4] = concentration range 0.06 nM to 30,000 nM

In the case of `CC(=O)OC[C@H]1O[C@@H]([S-])[C@H](OC(C)=O)[C@@H](OC(C)=O)[C@@H]1OC(C)=O.CCP(CC)CC.[Au+]` [Auranofin, auranofin], the “Mean Inhibition (n = 3)” value ([1]; test conc. 1.52 nM) is reported as −8.11%, the “Mean Inhibition (n = 3)” value ([1]; test conc. 4.57 nM) is reported as 0.54% and the “Mean Inhibition (n = 3)” value ([1]; test conc. 13.72 nM) is reported as −0.91%. For the same compound, the “Mean Inhibition (n = 3)” value ([1]; test conc. 41.15 nM) was 0.49%, the “Mean Inhibition (n = 3)” value ([1]; test conc. 123.46 nM) was 0.54% and the “Mean Inhibition (n = 3)” value ([1]; test conc. 370.37 nM) was 13.11%. The “Mean Inhibition (n = 3)” value ([1]; test conc. 1,111.11 nM) was 59.64%, the “Mean Inhibition (n = 3)” value ([1]; test conc. 3,333.33 nM) was 98.95% and the “Mean Inhibition (n = 3)” value ([1]; test conc. 10,000 nM) was 100.03%. The “Mean Inhibition (n = 3)” value ([1]; test conc. 30,000 nM) was 99.97%, the “Maximum inhibition observed in wild-type A2780 cells” value [2, 4] was 100% and the IC50 ([2]; wild-type A2780 cells) was 101 nM. The “Mean Inhibition (n = 3)” value ([2]; test conc. 1.52 nM) was −1.87%, the “Mean Inhibition (n = 3)” value ([2]; test conc. 4.57 nM) was −0.74% and the “Mean Inhibition (n = 3)” value ([2]; test conc. 13.72 nM) was 2.52%. For the same compound, the “Mean Inhibition (n = 3)” value ([2]; test conc. 41.15 nM) was 21.08%, the “Mean Inhibition (n = 3)” value ([2]; test conc. 123.46 nM) was 56.32% and the “Mean Inhibition (n = 3)” value ([2]; test conc. 370.37 nM) was 86.25%. For the same compound, the “Mean Inhibition (n = 3)” value ([2]; test conc. 1,111.11 nM) was 98.39%, the “Mean Inhibition (n = 3)” value ([2]; test conc. 3,333.33 nM) was 100.15% and the “Mean Inhibition (n = 3)” value ([2]; test conc. 10,000 nM) was 100.17%. The “Mean Inhibition (n = 3)” value ([2]; test conc. 30,000 nM) was 100.20%, the “Maximum inhibition observed in olaparib resistant A2780 cells” value [3, 4] was 100% and the “Mean Inhibition (n = 3)” value ([3]; test conc. 1.52 nM) was 4.64%. For the same compound, the “Mean Inhibition (n = 3)” value ([3]; test conc. 4.57 nM) was 3.42%, the “Mean Inhibition (n = 3)” value ([3]; test conc. 13.72 nM) was 12.34% and the “Mean Inhibition (n = 3)” value ([3]; test conc. 41.15 nM) was 41.07%. The “Mean Inhibition (n = 3)” value ([3]; test conc. 123.46 nM) was 78.31%, the “Mean Inhibition (n = 3)” value ([3]; test conc. 370.37 nM) was 96.38% and the “Mean Inhibition (n = 3)” value ([3]; test conc. 1,111.11 nM) was 96.82%. The “Mean Inhibition (n = 3)” value ([3]; test conc. 3,333.33 nM) was 100.13%, the “Mean Inhibition (n = 3)” value ([3]; test conc. 10,000 nM) was 100.19% and the “Mean Inhibition (n = 3)” value ([3]; test conc. 30,000 nM) was 100.17%. The IC50 ([3]; olaparib resistant A2780 cells) was 55 nM.
